# Data reported in patent US9522163B2, “Methods of treating hepatitis” (priority 2002, dated 2016).
# “Also recorded” adds a separate entry of the source.
# Tests used:
# primary rat hepatocytes = experiment: TNF-α induced apoptosis in rat hepatocytes; format: cell-based; conditions: exposure to CO
# Experimental: (§1) Cells were treated with TNF-α (10 ng/ml) and actinomycin-D (Act-D; 200 ng/ml, Sigma Chemical Co. St. Louis, Mo.) to induce cell death.
# Thus, the effects of CO were independent of the cGMP/p38 MAPK pathway. In these experiments, hepatocytes were pre-treated with CO for one hour prior to addition of TNF-α/ActD to the medium.
# [1] = tested on: mouse primary hepatocytes; experiment: TNF-α/ActD-induced cell death, crystal violet viability; format: cell-based
# Experimental: Mouse primary hepatocytes were harvested from C57BL/6J, mkk3^−/−, inos^−/− (in-house breeding colony), or hmox-1^−/− mice as described in Kim et al. (J. Biol. Chem. 272: 1402-1411 (1997)). Hepatocytes were used on days 1-3 following harvest.
# as §1
# Whether exogenous CO is protective against hepatocyte cell death in vitro was investigated. To generate the data presented in FIG. 2, mouse hepatocytes were pre-incubated with CO (250 ppm) for 1 hr (standard pre-treatment time for all experiments) prior to addition of TNF-α/Act-D (10 ng/200 ng/ml respectively). Cells were maintained in CO for the duration of the experiment. Twelve hours afterward, cell viability was measured as described in Kim et al. (J. Biol. Chem. 272: 1402-1411 (1997)). Adenoviral experiments involved incubating hepatocytes overnight with 10 pfu/cell of the adenovirus prior to addition of TNF-α/ActD, and then assaying for viability using crystal violet. The roles of signaling molecules guanylyl cyclase and p38 MAPK were also investigated in this model. To evaluate the role of cGMP and confirm the role of NF-κB, hepatocytes were treated separately with the soluble guanylate cyclase (sGC) inhibitor 1H-[1,2,4]Oxadiazolo[4,3-a]quinoxalin-1-one (ODQ; Calbiochem; 2-10 μM) or the NF-κB inhibitor BAY 11-7082, (10 μM). Cells were treated with the inhibitors for 1 hour prior to the 1 hour pretreatment with CO. TNF-α/ActD was then added and the cells tested for viability 12 hours later. NF-κB activation was critical to the protection elicited by CO while cGMP was not involved.
# To generate the data presented in FIG. 9, mouse hepatocytes were isolated from inos^−/− or from wild type C57BL/6J mice, which were then pre-treated for 1 hr with L-NIO (1 mM) to inhibit iNOS prior to CO administration. Those groups exposed to CO received a one-hour pretreatment prior to addition of TNF-α/ActD and were then returned to CO exposure.
# To generate the data presented in FIG. 19, mouse hepatocytes were isolated from HO-1 null mice (hmox-1^−/−) and wild type (C57BL/6J) littermates, pretreated for 1 hour with CO (250 ppm), and treated with TNF-α/ActD. Viability was assayed as described above.
# To generate the data presented in FIG. 20, mouse hepatocytes were isolated from HO-1 null mice (hmox-1^−/−) and wild type (C57BL/6J) littermates, pretreated with the NO donor SNAP (500 μM), and then treated with TNF-α/ActD 1 hour later.
# iNOS = iNOS promoter luciferase reporter assay in hepatocytes; format: cell-based; conditions: CO 250 ppm
# Experimental: (§2) In some experiments, gene transfer of an IκBα superrepressor (Hellerbrand et al., Hepatology 27:1285-1295 (1998)) or β-galactosidase using adenoviral vectors (10 pfu/cell) was performed 12 hours prior to TNF-α/ActD treatment. NF-κB activation was evaluated using a luciferase reporter assay as described in Chow et al. (J. Biol. Chem. 274: 10689-10692 (1999)). Briefly, hepatocytes were co-transfected with NF-κB reporter constructs (pGL3-kappaβ luciferase, 100 ng/well; and pIEP-Lac-z 0.5 μg/well) using Lipofectin™ (Invitrogen, Carlsbad, Calif.) as instructed by the manufacturer. Evaluation of iNOS expression was performed using a luciferase reporter assay as described in Lowenstein et al. (Proc. Natl. Acad. Sci. U.S.A 90: 9730-9734 (1993)). Briefly, hepatocytes were co-transfected with iNOS promoter reporter constructs (pXP2; 1 μg/well) and pIEP-LacZ (0.5 μg/well) as described above.
# Hepatocytes were transfected with plasmids as described above and treated with various stimuli 24 hours after transfection. Luciferase activity (reported as arbitrary units; A.U.) was assayed 6 hours after initiation of treatment, using a luciferase assay kit (Promega, Madison, Wis.) and a Berthold Luminometer. Results were corrected for transfection efficiency and protein concentration. […]
# NF-κB = NF-κB luciferase reporter assay in hepatocytes; format: cell-based, mouse; conditions: CO 250 ppm; reporter activity peaked one hour after placing cells in CO
# Experimental: as §2
# Hepatocytes were transfected with plasmids as described above and treated with various stimuli 24 hours after transfection. […] Results were corrected for transfection efficiency and protein concentration.
# To generate the data presented in FIG. 4, evaluation of NF-κB activation was performed using a luciferase reporter assay as described in Chow et al. (J. Biol. Chem. 274: 10689-10692 (1999)). […]
# [2] = tested on: human primary hepatocytes; experiment: TNF-α/ActD-induced cell death in human hepatocytes; format: cell-based; conditions: exposure to CO
# Experimental: as §1
# To generate the data presented in FIG. 3, human primary hepatocytes obtained from a donor liver resection were treated with CO and TNF-α/ActD as described above.
smiles,measurement,setting,value
"[C-]#[O+] [CO, carbon monoxide]",TNF-α induced apoptosis,primary rat hepatocytes,inhibited TNF-α induced apoptosis
same,"TNF-α/ActD-induced cell death, hmox-1−/− hepatocytes","[1]; CO 250 ppm, 1 hour pretreatment",unable to protect
same,"TNF-α/ActD-induced cell death, wild type hepatocytes","[1]; CO 250 ppm, 1 hr pre-incubation and maintained, viability 12 hours",significantly less cell death; also recorded: significantly protected
same,Cell death in the presence of SB203580,"[1]; SB203580 3-30 μM, data not shown",inhibited cell death
same,Cell death in hepatocytes from mkk3−/− mice,[1]; data not shown,inhibited cell death
same,Protection when CO treatment initiated after addition of TNF-α,[1]; data not shown,less protection was observed
same,Protection against cell death where iNOS expression was absent or inhibited,"[1]; inos−/− hepatocytes or wild type with L-NIO 1 mM, 12 hr",did not provide protection
same,iNOS luciferase reporter activity,iNOS,highly significant increase in activity
same,"NF-κB activation (luciferase reporter, EMSA, immunostaining)",NF-κB,moderate increase
same,TNF-α induced apoptosis,[2],inhibited TNF-α induced apoptosis
